Measured values reported in publication PMC5733478, “A Non-imaging High Throughput Approach to Chemical Library Screening at the Unmodified Adenosine-A3 Receptor in Living Cells” (Frontiers in Pharmacology, 2017).
Counter-ions that a name gives are not always drawn.

Target: T1, human A3AR (Homo sapiens, UniProt P0DMS8)
T1 construct: expressed in transfected cells
T1 sequence (P0DMS8 1-318): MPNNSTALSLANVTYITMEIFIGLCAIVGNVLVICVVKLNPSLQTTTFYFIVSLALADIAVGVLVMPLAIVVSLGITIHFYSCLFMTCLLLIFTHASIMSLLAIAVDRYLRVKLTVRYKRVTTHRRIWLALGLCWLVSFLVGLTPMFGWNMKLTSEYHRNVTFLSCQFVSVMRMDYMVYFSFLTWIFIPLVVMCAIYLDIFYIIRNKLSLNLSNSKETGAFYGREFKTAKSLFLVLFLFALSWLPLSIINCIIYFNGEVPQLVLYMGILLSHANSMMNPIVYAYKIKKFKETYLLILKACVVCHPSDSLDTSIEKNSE
Assay: LOPAC library primary screen: single concentration (10 μM) inhibition of 25 nM CA200645 binding, PHERAstar FS
Conditions: not given

| SMILES | % 25 nM CA200645 binding | hit in LOPAC primary screen (inhibited the binding of CA200645 by >40%) |
| --- | --- | --- |
| CCCN1CCc2cccc3c2[C@H]1Cc1ccc(O)c(O)c1-3.Cl [R(-)-Propylnorapomorphine hydrochloride] | 96.1 ± 7.1% |  |
| Br.CCCN(CCC)[C@@H]1CCc2ccc(O)cc2C1 [R-(+)-7-Hydroxy-DPAT hydrobromide] | 110.9 ± 7.0% |  |
| Br.CCCN(CCC)[C@@H]1CCc2cccc(O)c2C1 [R-(+)-8-Hydroxy-DPAT hydrobromide] | 83.0 ± 17.5% |  |
| C#CCN[C@H](C)Cc1ccccc1.Cl [R-(-)-Desmethyldeprenyl hydrochloride] | 101.0 ± 11.7% |  |
| C[C@H](Cc1ccccc1)Nc1ncnc2c1ncn2[C@@H]1O[C@H](CO)[C@@H](O)[C@H]1O [R-PIA, reference compound] |  | not identified as hits |
| COC1(C2=NCCN2)COc2ccccc2O1.Cl (stereo not drawn) [RX 821002 hydrochloride] | 101.0 ± 17.5% |  |
| O=C(c1ccc(OCCN2CCCCC2)cc1)c1c(-c2ccc(O)cc2)sc2cc(O)ccc12 [Raloxifene hydrochloride] | 90.8 ± 14.0% |  |
| COc1ccccc1OCC(O)CN1CCN(CC(=O)Nc2c(C)cccc2C)CC1 (stereo not drawn) [Ranolazine dihydrochloride] | 102.3 ± 13.7% |  |
| COC(=O)[C@H]1[C@H]2C[C@H]3c4[nH]c5ccccc5c4CCN3C[C@H]2CC[C@@H]1O [Rauwolscine hydrochloride] | 96.5 ± 8.7% |  |
| Nc1c(S(=O)(=O)O)cc(Nc2ccc(Nc3nc(Cl)nc(Nc4cccc(S(=O)(=O)O)c4)n3)c(S(=O)(=O)O)c2)c2c1C(=O)c1ccccc1C2=O [Reactive Blue 2] | 24.5 ± 2.7% |  |
| Cc1cccc(-c2[nH]ncc2-c2ccc3ncccc3n2)n1 [RepSox] | 98.5 ± 5.4% |  |
| COC(=O)[C@H]1[C@H]2C[C@@H]3c4[nH]c5cc(OC)ccc5c4CCN3C[C@H]2C[C@@H](OC(=O)c2cc(OC)c(OC)c(OC)c2)[C@@H]1OC [Reserpine] | 83.8 ± 14.9% |  |
| CC1=C(/C=C/C(C)=C/C=C/C(C)=C/C(=O)O)C(C)(C)CCC1 [Retinoic acid] | 93.6 ± 14.4% |  |
| NC(=O)c1ncn([C@@H]2O[C@H](CO)[C@@H](O)[C@H]2O)n1 [Ribavirin] | 103.3 ± 14.0% |  |
| C1COC(NC(C2CC2)C2CC2)=N1 [Rilmenidine hemifumarate] | 100.9 ± 6.4% |  |
| CC(NCCc1ccc(O)cc1)C(O)c1ccc(O)cc1 (stereo not drawn) [Ritodrine hydrochloride] | 99.4 ± 8.5% |  |
| CNc1cc(NS(=O)(=O)c2ccc(N)cc2)nc(NC)n1.Cl.Cl [Ro 04-6790 dihydrochloride] | 82.1 ± 15.5% |  |
| CCCN(CCC)CCc1cccc2c1CC(=O)N2 [Ropinirole hydrochloride] | 107.5 ± 15.4% |  |
| CC[C@H](CO)Nc1nc(NCc2ccccc2)c2ncn(C(C)C)c2n1 [Roscovitine] | 45.3 ± 8.6% |  |
| C=C(C)[C@H]1Cc2c(ccc3c2O[C@@H]2COc4cc(OC)c(OC)cc4[C@@H]2C3=O)O1 [Rotenone] | 92.4 ± 12.1% |  |
| NC(=O)c1cn(Cc2c(F)cccc2F)nn1 [Rufinamide] | 100.9 ± 12.8% |  |
| O=c1c2ccccc2nc2n1CCc1c-2[nH]c2ccccc12 [Rutaecarpine] | 34.3 ± 2.1% |  |
| N.N.N.N.N.N.N.N.N.N.N.N.N.N.[Cl-].[Cl-].[Cl-].[Cl-].[Cl-].[Cl-].[O-2].[O-2].[Ru+3].[Ru+3].[Ru+4] [Ruthenium red] | 95.4 ± 2.3% |  |
| c1ccc2c(c1)CC(N1CCN(c3cccc4c3OCCO4)CC1)C2 [S15535] | 97.0 ± 1.3% |  |
| CC(C)Cc1ccc([C@H](C)C(=O)O)cc1 [S(+)-Ibuprofen] | 107.7 ± 17.0% |  |
| CC(C)NC[C@@H](O)c1ccc(O)c(O)c1.O=C(O)C(O)C(O)C(=O)O [S(+)-Isoproterenol (+)-bitartrate] | 101.2 ± 2.4% |  |
| CC(C)NCC(O)COc1cccc2[nH]ccc12 (stereo not drawn) [S(-)-Pindolol] | 98.0 ± 8.4% |  |
| CC(C)(C)NC[C@H](O)COc1nsnc1N1CCOCC1.O=C(O)/C=C\C(=O)O [S(-)-Timolol maleate] | 103.3 ± 4.5% |  |

| SMILES | % 25 nM CA200645 binding | hit in LOPAC primary screen (inhibited the binding of CA200645 by >40%) |
| --- | --- | --- |
| Brc1ccc([C@H]2CN3CCSC3=N2)cc1.O=C(O)C(=O)O [S(-)-p-Bromotetramisole oxalate] | 68.6 ± 44.8% |  |
| Nc1nc(SCc2ccc([N+](=O)[O-])cc2)c2ncn([C@@H]3O[C@H](CO)[C@@H](O)[C@H]3O)c2n1 [S-(4-Nitrobenzyl)-6-thioguanosine] | 91.9 ± 3.2% |  |
| O=[N+]([O-])c1ccc(CSc2ncnc3c2ncn3[C@@H]2O[C@H](CO)[C@@H](O)[C@H]2O)cc1 [S-(4-Nitrobenzyl)-6-thioinosine] | 95.1 ± 33.3% |  |
| CNCC[C@H](Oc1ccc(C(F)(F)F)cc1)c1ccccc1.Cl [S-(+)-Fluoxetine hydrochloride] | 102.0 ± 9.9% |  |
| C[C@@](Cc1ccc(O)c(O)c1)(NN)C(=O)O [S-(-)-Carbidopa] | 101.3 ± 7.8% |  |
| CCc1cc(Cl)c(O)c(C(=O)NC[C@@H]2CCCN2CC)c1OC.Cl [S-(-)-Eticlopride hydrochloride] | 96.8 ± 1.1% |  |
| [N-]=[N+]=Nc1ccc(C(=O)CSC[C@H](NC(=O)CC[C@H](N)C(=O)O)C(=O)NCC(=O)O)cc1 [S-(p-Azidophenacyl)glutathione] | 82.4 ± 8.6% |  |
| Br.CCSC(=N)N [S-Ethylisothiourea hydrobromide] | 91.5 ± 10.5% |  |
| CSC(=N)N.CSC(=N)N.O=S(=O)(O)O [S-Methylisothiourea hemisulfate] | 112.2 ± 21.2% |  |
| Cc1nn(-c2ccccc2)c(C)c1/C=N/N1CCN(Cc2ccccc2)CC1 [SANT-1] | 82.1 ± 15.9% |  |
| Cl.Cn1ccc2cc(NC(=O)Nc3cccnc3)ccc21 [SB 200646 hydrochloride] | 81.7 ± 19.9% |  |
| Oc1ccc(-c2nc(-c3ccncc3)c(-c3ccc(F)cc3)[nH]2)cc1 [SB 202190] | 68.5 ± 12.1% |  |
| Cc1cc(NC(=O)Nc2ccc3c(ccn3C)c2)sn1 [SB 204741] | 88.1 ± 14.4% |  |
| CC#CCOC(=O)c1c(C)nc2sc3c(c2c1N)CCC(O)C3 (stereo not drawn) [SB 205384] | 95.1 ± 6.2% |  |
| Cn1ccc2cc3c(cc21)CCN3C(=O)Nc1cccnc1 [SB 206553 hydrochloride] | 60.7 ± 9.3% |  |
| Cn1cc(C2=C(c3ccc(Cl)cc3Cl)C(=O)NC2=O)c2ccccc21 [SB 216763] | 94.5 ± 10.2% |  |
| COC(=O)[C@H](NC(=O)c1cc(-c2ccccc2)nc2ccccc12)c1ccccc1 [SB 218795] | 51.1 ± 8.4% |  |
| CC[C@H](NC(=O)c1c(C)c(-c2ccccc2)nc2ccccc12)c1ccccc1 [SB 222200] | 76.8 ± 5.5% |  |
| Cc1cc2c(cc1Cl)N(C(=O)Nc1ccc(Oc3cccnc3C)nc1)CC2.Cl.Cl.O [SB 242084 dihydrochloride hydrate] | 49.6± 12.4% |  |
| CC1CCN(CC[C@H]2CCCN2S(=O)(=O)c2cccc(O)c2)CC1.Cl [SB 269970 hydrochloride] | 93.6 ± 22.9% |  |
| Cc1cc2c(cc1Cl)N(C(=O)Nc1cccc3ncccc13)CC2 [SB-215505] | 98.1 ± 14.8% |  |
| COc1cccc(NC(=O)/C=C/c2ccc(Cl)cc2)c1 [SB-366791] | 92.0 ± 7.1% |  |
| Cc1cccc(-c2[nH]c(C(C)(C)C)nc2-c2ccc3nccnc3c2)n1 [SB-525334] | 76.3 ± 9.5% |  |
| CC(=O)NNC(=O)N1Cc2ccccc2Oc2ccc(Cl)cc21 [SC 19220] | 105.0 ± 9.4% |  |
| NS(=O)(=O)c1ccc(-n2nc(C(F)(F)F)cc2-c2ccc(Cl)cc2)cc1 [SC-236] | 90.8 ± 15.2% |  |
| O=C(CCSCc1ccco1)NNC(=O)N1Cc2ccccc2Oc2ccc(Cl)cc21 [SC-51322] | 86.9 ± 5.7% |  |
| CN(CCCOc1ccc(Cc2ccccc2)cc1)CCC(=O)O.Cl [SC-57461A] | 83.2 ± 13.1% |  |

Same assay, conditions: % of control wells (1% DMSO and 25 nM CA200645); compounds at 10 µM; whole live cells expressing A3AR; mean ± SD, three experiments in duplicate

| SMILES | % 25 nM CA200645 binding |
| --- | --- |
| CS(=O)(=O)c1ccc(-n2nc(C(F)(F)F)cc2-c2ccc(F)cc2)cc1 [SC-58125] | 96.5 ± 13.6% |

Same assay, conditions: % of control wells (1% DMSO and 25 nM CA200645); compounds at 10 µM; whole live cells expressing the A3AR; mean ± SD, three experiments in duplicate

| SMILES | % 25 nM CA200645 binding |
| --- | --- |
| Oc1ccc(/C=C/c2cc(O)cc(O)c2)cc1 [Resveratrol] | 100.3 ± 16.3% |
| Cc1nc2sccn2c(=O)c1CCN1CCC(=C(c2ccc(F)cc2)c2ccc(F)cc2)CC1 [Ritanserin] | 79.4 ± 12.5% |
| COc1ccc(C2CNC(=O)C2)cc1OC1CCCC1 (stereo not drawn) [Rolipram] | 98.7 ± 10.9% |

Same assay, conditions: compounds tested at 10 µM; % of control wells (1% DMSO and 25 nM CA200645); whole live cells expressing the A3AR; mean ± SD, three experiments in duplicate

| SMILES | % 25 nM CA200645 binding |
| --- | --- |
| CSC(N)=NCCC[C@H](N)C(=O)O [S-Methyl-L-thiocitrulline acetate] | 102.0 ± 13.0% |
